# Measured values from patent publication US20020090619A1, “Methods for identifying mitochondrial divalent cation transporters” (priority 2000, published 2002).
# Assay: ETH 129 mediated cation transport into Quin-2 loaded POPC vesicles
# Type: biochemical
# Parameters: slope of log Ca2+ transport rate vs ΔΨ: unit not given here
# Conditions: for SlopeETH 129: log rate vs log ETH 129; for SlopeMe: log rate vs log cation concentration, FIG. 8B
# Experimental: Unilamellar vesicles loaded with Quin-2 were prepared from 1-palmitoyl-2-oleoyl-sn-glycerophosphatidylcholine (POPC) by freeze-thaw extrusion (Erdahl et al., 1994 Biophys. J. 66:1678; Erdahl et al., 1995 Biophys. J. 69:2350). The formation medium contained 5 mM Quin-2 (K+), 10 mM Hepes (K+), pH 7.00, and 100 mM KCl. A high internal K+ concentration was sought to allow the generation of membrane potentials of varying magnitude (see below). The preparations obtained were applied to Sephadex™ G-50 mini-columns (Pharmacia, Piscataway N.J.) and eluted by low speed centrifugation (Fry et al., 1978 Anal. Biochem. 90:809), to replace the external medium with a 10 mM Hepes buffer (Na+), pH 7.00 (Erdahl et al., 1994 Biophys. J. 66:1678; Erdahl et al., 1995 Biophys. J. 69:2350). The nominal concentration of POPC in final preparations was determined as lipid phosphorus (Bartlett, 1959 J Biol. Chem. 234:466) and was near 80 mM. The average diameter of these vesicles was 71 nm as determined by freeze-fracture electron microscopy (Chapman et al., 1990 Chem. Phys. Lipids 55:73). They contained entrapped K+ at approximately 125 mM, as determined by atomic absorption spectroscopy, and Quin-2 at approximately 6 mM. The latter value was determined by titrating lysed vesicles with a standard solution of CaCl2 and was about one third of the expected value (Erdahl et al., 1995 Bipohys. J. 69:3250). The high solute level in the formation medium reduced the efficiency of Quin-2 entrapment by reducing the effectiveness of a freeze-thaw driven solute concentrating mechanism that normally elevates the internal concentrations of solutes, relative to the external medium (Chapman et al., 1990 Chem. Phys. Lipids 55:73; Chapman et al., 1990 Chem. Phys. Lipids 60:201).
# POPC vesicles containing Quin-2 were utilized at a nominal phospholipid concentration of 1.0 mM, and at 25° C. The external medium contained polyvalent cation salts as described below, 100 mM NaCl, or mixtures of NaCl and KCl totaling […], and 10 mM Hepes, pH 7.00, unless otherwise noted. The medium pH was adjusted with NaOH that had been passed over Chelex 100 columns to remove contaminating cations (Erdahl et al., 1994 Biophys. J. 66:1678). In most cases an inside negative membrane electrical potential was present during the experiments. This was generated by the presence of 0.5 μM valinomycin (Val), which transports K+ out of the vesicles electrogenically (Erdahl et al., 1994 Biophys. J. 66:1678). The magnitude of the potential was controlled by varying the concentration ratio of Na+ to K+ in the external medium. A TPP+electrode was used to measure the potential (Broekemeier et al, 1998 Biochem. 37:13059), and thereby to verify that the calculated values were obtained. For these purposes the incubation medium contained 2.0 μM TPP.Cl and the entrapped volume was taken to be 2.02 μl/ml at a nominal POPC concentration of 1.0 mM (Chapman et al., 1990 Chem. Phys. Lipids 55:73).
# Val was omitted when an imposed membrane potential was not desired, or in some cases 5 μM of the protonophore carbonyl cyanide m-chlorophenylhydrazone (CCP) was present instead of Val.
# The transport of polyvalent cations was monitored by difference absorbance measurements which detected formation of the Quin-2:cation complex within the vesicle lumen. An Aminco DW2a spectrophotometer operated in the dual wavelength mode was employed. In addition, an Oriel No. 59800 band pass filter was used between the cuvette and the beam scrambler-photomultiplier assembly to prevent detection of the fluorescent light emitted by Quin-2. The sample wavelength for all cations was 264 nm. The reference wavelengths were at an isosbestic point in the Quin-2/Quin-2:cation complex difference spectrum of interest. These wavelengths varied slightly from cation to cation, as previously described (Erdahl et al., 1996 Biochem. 35:13817). […]
# [1] = 5.0 μM ETH 129, 30 μM CaCl2, Val, FIG. 3B
compound,measurement,setting,value
O=C(COCC(=O)N(C1CCCCC1)C1CCCCC1)N(C1CCCCC1)C1CCCCC1 [ETH 129],slope of log rate vs. log Ca2+ concentration,"5.0 μM ETH 129, 0.5 μM Val, FIG. 7B",0.7
same,Ca2+ transport rate at zero potential (extrapolated),[1],0.41 nM/s
same,slope of log Ca2+ transport rate vs ΔΨ,[1],0.12
same,Ca2+ transport rate when CCP was used to eliminate an opposing potential,"5.0 μM ETH 129, 100 μM CaCl2, 5.0 μM CCP, FIG. 2C",0.88 nM/s
same,"Selectivity, Ca/Me","10^−2.0 M Cations, Me = Ca^2+",≡1.0
same,"Selectivity, Ca/Me","10^−2.0 M Cations, Me = Co^2+",53
same,"Selectivity, Ca/Me","10^−2.0 M Cations, Me = La^3+",5.1
same,"Selectivity, Ca/Me","10^−2.0 M Cations, Me = Mn^2+",59
same,"Selectivity, Ca/Me","10^−2.0 M Cations, Me = Ni^2+",55
same,"Selectivity, Ca/Me","10^−2.0 M Cations, Me = Sr^2+",2.8
same,"Selectivity, Ca/Me","10^−2.0 M Cations, Me = Zn^2+",2.3
same,"Selectivity, Ca/Me","10^−3 5 M Cations, Me = Ca^2+",≡1.0
same,"Selectivity, Ca/Me","10^−3 5 M Cations, Me = Co^2+",9.9
same,"Selectivity, Ca/Me","10^−3 5 M Cations, Me = La^3+",0.44
same,"Selectivity, Ca/Me","10^−3 5 M Cations, Me = Mn^2+",8.9
same,"Selectivity, Ca/Me","10^−3 5 M Cations, Me = Ni^2+",8.6
same,"Selectivity, Ca/Me","10^−3 5 M Cations, Me = Sr^2+",2.9
same,"Selectivity, Ca/Me","10^−3 5 M Cations, Me = Zn^2+",2.6
same,"Selectivity, Ca/Me","10^−5.0 M Cations, Me = Ca^2+",≡1.0
same,"Selectivity, Ca/Me","10^−5.0 M Cations, Me = Co^2+",1.6
same,"Selectivity, Ca/Me","10^−5.0 M Cations, Me = La^3+",0.14
same,"Selectivity, Ca/Me","10^−5.0 M Cations, Me = Mn^2+",1.1
same,"Selectivity, Ca/Me","10^−5.0 M Cations, Me = Ni^2+",1.1
same,"Selectivity, Ca/Me","10^−5.0 M Cations, Me = Sr^2+",1.0
same,"Selectivity, Ca/Me","10^−5.0 M Cations, Me = Zn^2+",0.9
same,slope of log rate vs. log ionophore concentration,"Ca2+ 30 μM, Val, FIG. 6B",2.8
same,selectivity sequence among the divalent cations,FIG. 8,Ca^2+>Zn^2+≈Sr^2+>Co2+≈Ni^2+≈Mn^2+
same,acceleration of Ca2+ transport per 59 mV increase in ΔΨ,"equivalent of the slope value, FIG. 3B",3.3 fold
same,SlopeETH 129,cation Ca^2+ 1.0 mM,1.5
same,SlopeETH 129,cation Co^2+ 1.0 mM,0.55
same,SlopeETH 129,cation Mn^2+ 1.0 mM,0.85
same,SlopeETH 129,cation Ni^2+ 1.0 mM,0.78
same,SlopeETH 129,cation Sr^2+ 1.0 mM,2.0
same,SlopeMe,cation Ca^2+,0.65
same,SlopeMe,cation Co^2+,0.11
same,SlopeMe,cation La^3+,nonlin
same,SlopeMe,cation Mn^2+,0.04
same,SlopeMe,cation Ni^2+,0.05
same,SlopeMe,cation Sr^2+,0.57
same,SlopeMe,cation Zn^2+,0.58
same,effect of ETH 129 alone on rate of Ca2+ permeation,"no Val or CCP, FIG. 2A",only a modest effect
